Laboratory results: article PMC5061557 (Structure (London, England : 1993), 2016)

Experiments:
[1] = target: WTHslU (Escherichia coli, UniProt P0A6H5); assay: NADH-coupled ATPase assay; assay type: biochemical; conditions: 5 mM ATP, pH 7.5, 20 mM MgCl2, 37 °C, without HslV
[2] = target: the molecule itself; assay: crystal structure

WTHslU, sequence (P0A6H5 whole entry): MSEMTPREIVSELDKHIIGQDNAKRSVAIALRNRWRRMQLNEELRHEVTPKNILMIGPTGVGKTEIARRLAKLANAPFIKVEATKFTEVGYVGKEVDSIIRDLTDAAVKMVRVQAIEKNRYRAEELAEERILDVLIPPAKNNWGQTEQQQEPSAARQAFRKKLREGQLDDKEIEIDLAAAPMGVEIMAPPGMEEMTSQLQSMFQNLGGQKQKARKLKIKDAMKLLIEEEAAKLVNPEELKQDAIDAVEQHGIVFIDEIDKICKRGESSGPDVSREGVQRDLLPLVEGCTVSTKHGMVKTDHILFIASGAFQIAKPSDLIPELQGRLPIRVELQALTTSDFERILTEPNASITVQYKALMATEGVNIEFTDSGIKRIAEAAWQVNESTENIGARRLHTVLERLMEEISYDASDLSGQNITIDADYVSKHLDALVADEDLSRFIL

Molecule | NADH-coupled ATPase assay [1] | stoichiometry N [2]
Nc1ncnc2c1ncn2[C@@H]1O[C@H](COP(=O)(O)OP(=O)(O)OP(=O)(O)O)[C@@H](O)[C@H]1O [ATP] | assayed rates of ATP hydrolysis for this enzyme and wild type | –
E. coli L199Q HslU mutant with an N-terminal H6 tag (enzyme, UniProt P0A6H5 1-443, looked up) MSEMTPREIVSELDKHIIGQDNAKRSVAIALRNRWRRMQLNEELRHEVTPKNILMIGPTGVGKTEIARRLAKLANAPFIKVEATKFTEVGYVGKEVDSIIRDLTDAAVKMVRVQAIEKNRYRAEELAEERILDVLIPPAKNNWGQTEQQQEPSAARQAFRKKLREGQLDDKEIEIDLAAAPMGVEIMAPPGMEEMTSQQQSMFQNLGGQKQKARKLKIKDAMKLLIEEEAAKLVNPEELKQDAIDAVEQHGIVFIDEIDKICKRGESSGPDVSREGVQRDLLPLVEGCTVSTKHGMVKTDHILFIASGAFQIAKPSDLIPELQGRLPIRVELQALTTSDFERILTEPNASITVQYKALMATEGVNIEFTDSGIKRIAEAAWQVNESTENIGARRLHTVLERLMEEISYDASDLSGQNITIDADYVSKHLDALVADEDLSRFIL | – | 6
